Patent publication US6432381B1, “Methods for targeting drug delivery to the upper and/or lower gastrointestinal tract” (Elan Pharma International Limited, priority 1994, dated 2002)

Key:
[1] = Table 3
[2] = test system: GI tract; experiment: X-ray diagnostic imaging of mucoadhesion in the GI tract (rats); type: in vivo
Description: (§1) The amount and site of the mucoadhesion was determined by x-ray diagnostic imaging. The imaging was performed in anesthetized rats with the exception of G05-R1 samples which were imaged in fasted and anesthetized ferrets. Images were obtained using the Siemens C-Arm Siremobil 3U x-ray unit. The imaging dose was 10 ml/kg administered via gastric intubation to the anesthetized animal. X-rays were taken at 15, 30, 45 and 60 minutes and at 1, 2, 5 and 24 hours post-dose. A 10-15 ml volume of air was introduced to the animal at 30 minutes to produce a double contrast image.
(§2) Images were evaluated by the criteria of: coating, homogeneity, rate of gastric emptying and the total transit time. These are considered to be a measure of the stability of the suspension during transit down the GI tract and the ability of the formulation to adhere to the lower gastrointestinal tract. Suspensions were rated excellent when there was a uniform coating with transradiation of long intestinal segments, sufficient radiodensity to delineate anatomical structure, rapid emptying and transit, and stability and homogeneity during GI transit. A plus sign (+) was assigned when imaging in the lower GI was exceptional, a minus sign (−) as given when it was not. […]

[3] = test system: GI tract; experiment: X-ray diagnostic imaging of mucoadhesion in the GI tract (ferrets); type: in vivo; details: suspension milled in Pluronic F127
Description: as §1, §2

[4] = Particle size determination; type: physicochemical; details: wet grinding
Description: As used herein, particle size is determined on the basis of weight average particle size as measured by conventional particle size measuring techniques well known to those skilled in the art, such as sedimentation field flow fractionation, photon correlation spectroscopy, or disk centrifugation. […] By “effective particle size” is meant that at least 90% of the particles in the sample measured by the above-noted weight sizing techniques have a particle size less than the stated size.
The particle size was determined during the milling process and again immediately before the suspensions were administered. Particle size was determined on the Coulter Model N4MD Submicron Particle Analyzer (Coulter Corp.; Miami Lakes, Fla.); and using the Microtrac Ultrafine Particle Analyzer (Leeds and Northrup Co.; St. Petersburg, Fla.).

Structure (SMILES): CCOC(=O)c1c(I)c(NC(C)=O)c(I)c(NC(C)=O)c1I [WIN 8883, ethyl 3,5-bis(acetylamino)-2,4,6-triodobenzoate]
- Aqueous Solubility [1]: <5 µg/mL
- Upper and lower GI imaging rating ([2]; suspension milled in/stabilized with Pluronic F127, rats): excellent
- GI imaging rating ([2]; suspension stabilized with F88, for the upper GI only): excellent
- Upper and lower GI imaging rating [3]: excellent

Structure (SMILES): C[C@@H]1[C@H](O)[C@@H](C)/C=C/C=C/C=C/C=C/C=C/C=C/C=C/[C@H](O[C@@H]2O[C@H](C)[C@@H](O)[C@H](N)[C@@H]2O)C[C@@H]2O[C@](O)(C[C@@H](O)C[C@@H](O)[C@H](O)CC[C@@H](O)C[C@@H](O)CC(=O)O[C@H]1C)C[C@H](O)[C@H]2C(=O)O [amphotericin B]
- Particle Size Weight Average ([4]; amphotericin B 5%, poloxamer F-68 2.5%): 426 nm
- Particle Size Weight Average ([4]; amphotericin B 5%, poloxamer F-127 2.5%): 510 nm

Structure (SMILES): CCC(=O)OCC(=O)[C@@]1(OC(=O)CC)[C@@H](C)C[C@H]2[C@@H]3CCC4=CC(=O)C=C[C@]4(C)[C@@]3(Cl)[C@@H](O)C[C@@]21C [beclomethasone dipropionate]
- Particle Size Weight Average ([4]; beclomethasone dipropionate 5%, poloxamer F-68 2.5%): 221 nm
- Particle Size Weight Average ([4]; beclomethasone dipropionate 5%, poloxamer F-127 2.5%): 244 nm

Structure (SMILES): CS(=O)(=O)OCCCCOS(C)(=O)=O [busulfan]
- Particle Size Weight Average ([4]; busulfan 2%, poloxamer F-108 0.5%): 387 nm

Structure (SMILES): CC[C@@]1(O)C(=O)OCc2c1cc1n(c2=O)Cc2cc3ccccc3nc2-1 [camptothecin]
- Particle Size Weight Average ([4]; camptothecin 2%, poloxamer F-68 2%): 107 nm
- Particle Size Weight Average ([4]; camptothecin 2%, poloxamer F-108 1%): 111 nm

Structure (SMILES): COC1=CC(=O)C[C@@H](C)[C@]12Oc1c(Cl)c(OC)cc(OC)c1C2=O [griseofulvin]
- Particle Size Weight Average ([4]; griseofulvin 5%, poloxamer F-68 2.5%): 617 nm
- Particle Size Weight Average ([4]; griseofulvin 5%, poloxamer F-127 2.5%): 617 nm

Structure (SMILES): CC(C)Cc1ccc(C(C)C(=O)O)cc1 (centres unmarked) [ibuprofen]
- Particle Size Weight Average ([4]; ibuprofen 3%, poloxamer F-68 2.0%): 253 nm

Structure (SMILES): COc1ccc2c(c1)c(CC(=O)O)c(C)n2C(=O)c1ccc(Cl)cc1 [indomethacin]
- Particle Size Weight Average ([4]; indomethacin 5%, poloxamer F-68 1%): 228 nm
- Particle Size Weight Average ([4]; indomethacin 5%, poloxamer F-68 2.5%): 193 nm

Structure (SMILES): CN(Cc1cnc2nc(N)nc(N)c2n1)c1ccc(C(=O)N[C@@H](CCC(=O)O)C(=O)O)cc1 [methotrexate]
- Particle Size Weight Average ([4]; methotrexate 5%, poloxamer F-68 2.5%): 196 nm
- Particle Size Weight Average ([4]; methotrexate 5%, poloxamer F-127 2.5%): 248 nm

Structure (SMILES): COc1ccc2cc([C@H](C)C(=O)O)ccc2c1 [naproxen]
- Particle Size Weight Average ([4]; naproxen 5%, poloxamer F-68 3.0%): 270 nm

Structure (SMILES): O=C1NC(=O)C(c2ccccc2)(c2ccccc2)N1 [phenytoin]
- Particle Size Weight Average ([4]; phenytoin 5%, poloxamer F-68 2.5%): 385 nm
- Particle Size Weight Average ([4]; phenytoin 5%, poloxamer F-108 2.5%): 385 nm
- Particle Size Weight Average ([4]; phenytoin 5%, poloxamer F-127 2.5%): 431 nm

Structure (SMILES): CS(=O)(=O)OCCC(=O)N1CCN(C(=O)CCOS(C)(=O)=O)CC1 [piposulfan]
- Particle Size Weight Average ([4]; piposulfan 2%, poloxamer F-108 0.5%): 339 nm
